This note sets out measurements from patent publication US20090053278A1, “ANTI-MICROBIAL COMPOSITIONS AND DEVICES AND METHODS OF USING THE SAME” (priority 2006, published 2009).

Assay [1] has as its system Staphylococcus aureus (University of Calgary clinical isolate, strain 2645) grown as a biofilm. The assay can be described thus: MBEC of biofilm, MBEC device, 24 hour exposure. Type of assay: cell-based. As to conditions: S. aureus biofilm, 10% MHB in PBS. From the text:
(§1) The procedure provided describes an assay for testing 2 organisms (S. epidermidis and S. aureus) grown as a biofilm against 2 antimicrobial agents (gentamicin and an eCAP peptide) using a 96 well microtitre plate. The procedure will allow one to compare the MIC and MBEC values for each organism against each antimicrobial agent and against each other.
(§2) Microorganisms used were Staphylococcus epidermididis (RP62A; “Christensen Strain”) and Staphylococcus aureus (University of Calgary clinical isolate, strain 2645).
(§3) One set of test panels as shown above was prepared for each organism to determine the MIC and MBEC after a 24 hour exposure to each test material. SC wells are sterility controls for each experiment. GC is the growth control for each row. The working solution of gentamicin was 3 μmol/ml and 1 μmol/ml for eCAP. No SEM samples were taken for analysis due to test material shortage.
(§4) A working solution of eCAP or Gentamicin (1 μMoles/mL and 3 μMoles/mL respectively) was made in 10% MHB in sterile PBS. 200 μl of 10% MHB was added to ‘column’ 12 to serve as sterility controls (SC) and growth controls (GC) for each organism. 100 μl of 10% MHB was added to ‘columns’ 2 to 11. 200 μl of the appropriate working solution was added to ‘column’ 1 of the microtitre plate. 100 μl of the appropriate working solution was added to ‘column’ 2 and ‘column’ 3 of the microtitre plate. Using the multichannel micropipette, the contents of ‘column’ 3 was mixed by pipetting up and down. After mixing, 100 μl was transferred from the wells in ‘column’ 3 to the corresponding wells in ‘column’ 4. This was repeated until reaching ‘column’ 1. Using a pipet, 100 μl from each well in ‘column’ 11 was ejected. 100 μl of growth media was then added to all wells except A1 to H1, A2 to H2, and A12 to H12.
Antimicrobial Challenge of Biofilm: Rinse plate(s) of saline (200 μL per well) were prepared. Planktonic cells from biofilm that had formed on the lid of the MBEC device were rinsed by dipping the lid into the saline for 1-2 minutes. The lid was transferred to the challenge plate and incubated at 37° C. for 24 hours on a gyrating platform set at approximately 150 rpm.
Recovery of Surviving Biofilm: Rinse plate(s) of 0.9% sterile saline (200 μL per well) were prepared in a sterile 96 well micro titre plate. Pegs were rinsed in 0.9% sterile saline for 1 to 2 minutes. […] The recovery plates were incubated at 37° C. for 24 hours and read using the plate ready to determine MBEC values.
(§5) Therefore, 10% MHB was used as a diluent instead of TSB. […] The MIC and MBEC values were determined as the dilution immediately before the concentration where growth was first observed, as depicted in Table 9 below.

Assay [2] concerns Staphylococcus epidermididis (RP62A; "Christensen Strain"). As to the kind of experiment: Planktonic MIC, MBEC device, 24 hour exposure. It counts as cell-based, Staphylococcus epidermidis. As to conditions: S. epidermidis, 10% MHB in PBS.
Excerpt: as §1, §2, §3
as §4, with “This was repeated until reaching ‘column’ 1. Using a pipet, 100 μl from each well in ‘column’ 11 was ejected. 100 μl of growth media was then added to all wells except A1 to H1, A2 to H2, and A12 to H12.” left out
Determination of Planktonic MIC: The challenge plate was incubated at 37° C. for 24 hours and read using a plate reader to determine MIC values. The MIC (minimum inhibitory concentration) was determined for compound eCAP/gentamicin for each organism shed from the biofilm during the challenge incubation. […]
as §5

The test system of assay [3] is Staphylococcus epidermididis (RP62A; "Christensen Strain") grown as a biofilm. The assay can be described thus: MBEC of biofilm, MBEC device, 24 hour exposure. Type of assay: cell-based, Staphylococcus epidermidis. Particulars: S. epidermidis biofilm, 10% MHB in PBS, listed as eCAP sterilized by ethylene oxide.
Excerpt: as §1, §2
One set of test panels as shown above was prepared for each organism to determine the MIC and MBEC after a 24 hour exposure to each test material. SC wells are sterility controls for each experiment. GC is the growth control for each row. The working solution of gentamicin was 3 μmol/ml and 1 μmol/ml for eCAP. No SEM samples were taken for analysis due to test material shortage. […]
Recovery of Surviving Biofilm: Rinse plate(s) of 0.9% sterile saline (200 μL per well) were prepared in a sterile 96 well micro titre plate. […] The recovery plates were incubated at 37° C. for 24 hours and read using the plate ready to determine MBEC values.
as §5

For a further assay, the system named is Enterococcis faecalis. The assay can be described thus: in-vitro assay of peptide-coated plastic endodontic obturators. It counts as cell-based. As to conditions: peptide immobilized on plastic obturators; data not shown. From the text: Medical standard plastic endodontic obturators were coated with an antimicrobial peptide. […] The obturators were coated with a tie layer. A parylene coating containing a reactive molecule specific for the N-terminus region of the peptide (“Photopolymer”) was then applied over the tie layer. The peptide WLBU-2 (SEQ ID NO. 179) was applied to the parylene coating and exposed to UV light to facilitate covalent bonding of the peptide with the parylene coating. Non-coated obturators were used as controls. All samples and controls were subjected to ethylene oxide sterilization. The coated samples were placed in 75% relative humidity overnight.

Assay [4] in a line: antimicrobial activity retained after sterilization. The text has this: In a useful embodiment of the present invention, the antimicrobial peptides may retain antibacterial activity after a device coated with the antimicrobial peptide is sterilized.
[5] abbreviates: listed as eCAP sterilized by ethylene oxide.

In brackets after ≈: the same amount, converted by molar mass. Where a SMILES comes first, the peptide text is derived from it.

For the molecule `CC(C)[C@H](NC(=O)[C@H](Cc1c[nH]c2ccccc12)NC(=O)[C@H](CCCNC(=N)N)NC(=O)[C@H](CCCNC(=N)N)NC(=O)[C@@H](NC(=O)[C@@H](NC(=O)[C@H](CCCNC(=N)N)NC(=O)[C@@H](NC(=O)[C@@H](NC(=O)[C@H](CCCNC(=N)N)NC(=O)[C@H](CCCNC(=N)N)NC(=O)[C@H](Cc1c[nH]c2ccccc12)NC(=O)[C@@H](NC(=O)[C@H](CCCNC(=N)N)NC(=O)[C@H](CCCNC(=N)N)NC(=O)[C@@H](NC(=O)[C@H](CCCNC(=N)N)NC(=O)[C@H](CCCNC(=N)N)NC(=O)[C@@H](NC(=O)[C@H](Cc1c[nH]c2ccccc12)NC(=O)[C@H](CCCNC(=N)N)NC(=O)[C@@H](N)CCCNC(=N)N)C(C)C)C(C)C)C(C)C)C(C)C)C(C)C)C(C)C)C(C)C)C(=O)N[C@@H](CCCNC(=N)N)C(=O)N[C@@H](CCCNC(=N)N)C(=O)O` [Ethylene oxide eCAP] (H-RRWVRRVRRVWRRVVRVVRRWVRR-OH; N-terminus and C-terminus assumed), the MBEC result is “approximately 0.0039 μmol/ml” in assay [1] (setting [5]) and 0.0078 µmol/mL in assay [3]. The minimal inhibitory concentration (MIC) in assay [2] (setting [5]) was found to be 3.9 µM (≈ 13.3 µg/mL).

`CC(C)[C@H](NC(=O)[C@H](Cc1c[nH]c2ccccc12)NC(=O)[C@H](CCCNC(=N)N)NC(=O)[C@H](CCCNC(=N)N)NC(=O)[C@@H](NC(=O)[C@@H](NC(=O)[C@H](CCCNC(=N)N)NC(=O)[C@@H](NC(=O)[C@@H](NC(=O)[C@H](CCCNC(=N)N)NC(=O)[C@H](CCCNC(=N)N)NC(=O)[C@H](Cc1c[nH]c2ccccc12)NC(=O)[C@@H](NC(=O)[C@H](CCCNC(=N)N)NC(=O)[C@H](CCCNC(=N)N)NC(=O)[C@@H](NC(=O)[C@H](CCCNC(=N)N)NC(=O)[C@H](CCCNC(=N)N)NC(=O)[C@@H](NC(=O)[C@H](Cc1c[nH]c2ccccc12)NC(=O)[C@H](CCCNC(=N)N)NC(=O)[C@@H](N)CCCNC(=N)N)C(C)C)C(C)C)C(C)C)C(C)C)C(C)C)C(C)C)C(C)C)C(=O)N[C@@H](CCCNC(=N)N)C(=O)N[C@@H](CCCNC(=N)N)C(=O)O` [High dose Irradiated eCAP] (H-RRWVRRVRRVWRRVVRVVRRWVRR-OH; N-terminus and C-terminus assumed): in assay [1] (listed as eCAP sterilized by high dose irradiation), the MBEC entry is recorded as “approximately 0.016 μmol/ml”.

For `CC(C)[C@H](NC(=O)[C@H](Cc1c[nH]c2ccccc12)NC(=O)[C@H](CCCNC(=N)N)NC(=O)[C@H](CCCNC(=N)N)NC(=O)[C@@H](NC(=O)[C@@H](NC(=O)[C@H](CCCNC(=N)N)NC(=O)[C@@H](NC(=O)[C@@H](NC(=O)[C@H](CCCNC(=N)N)NC(=O)[C@H](CCCNC(=N)N)NC(=O)[C@H](Cc1c[nH]c2ccccc12)NC(=O)[C@@H](NC(=O)[C@H](CCCNC(=N)N)NC(=O)[C@H](CCCNC(=N)N)NC(=O)[C@@H](NC(=O)[C@H](CCCNC(=N)N)NC(=O)[C@H](CCCNC(=N)N)NC(=O)[C@@H](NC(=O)[C@H](Cc1c[nH]c2ccccc12)NC(=O)[C@H](CCCNC(=N)N)NC(=O)[C@@H](N)CCCNC(=N)N)C(C)C)C(C)C)C(C)C)C(C)C)C(C)C)C(C)C)C(C)C)C(=O)N[C@@H](CCCNC(=N)N)C(=O)N[C@@H](CCCNC(=N)N)C(=O)O` [Low dose irradiated eCAP] (H-RRWVRRVRRVWRRVVRVVRRWVRR-OH; N-terminus and C-terminus assumed), the MBEC result in assay [1] (listed as eCAP sterilized by low dose irradiation) was “approximately 0.063 μmol/ml”.

Take `CC(C)[C@H](NC(=O)[C@H](Cc1c[nH]c2ccccc12)NC(=O)[C@H](CCCNC(=N)N)NC(=O)[C@H](CCCNC(=N)N)NC(=O)[C@@H](NC(=O)[C@@H](NC(=O)[C@H](CCCNC(=N)N)NC(=O)[C@@H](NC(=O)[C@@H](NC(=O)[C@H](CCCNC(=N)N)NC(=O)[C@H](CCCNC(=N)N)NC(=O)[C@H](Cc1c[nH]c2ccccc12)NC(=O)[C@@H](NC(=O)[C@H](CCCNC(=N)N)NC(=O)[C@H](CCCNC(=N)N)NC(=O)[C@@H](NC(=O)[C@H](CCCNC(=N)N)NC(=O)[C@H](CCCNC(=N)N)NC(=O)[C@@H](NC(=O)[C@H](Cc1c[nH]c2ccccc12)NC(=O)[C@H](CCCNC(=N)N)NC(=O)[C@@H](N)CCCNC(=N)N)C(C)C)C(C)C)C(C)C)C(C)C)C(C)C)C(C)C)C(C)C)C(=O)N[C@@H](CCCNC(=N)N)C(=O)N[C@@H](CCCNC(=N)N)C(=O)O` [WLBU-2, RRWVRRVRRVWRRVVRVVRRWVRR] (H-RRWVRRVRRVWRRVVRVVRRWVRR-OH; N-terminus and C-terminus assumed): in assay [2] (listed as eCAP), the MIC is 3.9 µM (≈ 13.3 µg/mL). Also, the “efficacy against Enterococcis faecalis of immobilized peptide” value in the assay on Enterococcis faecalis is “efficacy against Enterococcis faecalis”. For the same molecule, the “effect of sterilization methods on antimicrobial activity” value in assay [4] (high and low dose gamma radiated and ethylene oxide, MIC/MBEC against S. aureus and S. epidermidis) was “not detrimental to its antimicrobial activity”. For the same molecule, in assay [4] (peptide coated on a substrate), the “antimicrobial activity after ethylene oxide sterilization” value is recorded as “retained antimicrobial activity”.

In the case of Gentamicin [reference compound], the MBEC in assay [1] was 1.5 µmol/mL. The molecule further returned an MIC in assay [2] of 1500 µM.

By MIC is commonly meant the smallest concentration in the dilution series that meets the test's criterion for growth inhibition. Low values mean a more susceptible organism, high ones a less susceptible organism.
